How the values were obtained:
Assay type in all cases: cell-based, C57BL/6 mice
CD8 cells = tested on: CD8 cells
Vb6-CD8 clone = tested on: Vb6-CD8 clone
Vb6+ CD8 clone = tested on: Vb6+ CD8 clone

Row | Substance | TNF-α and IFN-γ expression (CD8 cells) | response pattern (IFN-γ and proliferation) (Vb6-CD8 clone) | IFN-γ by ELISA (Vb6+ CD8 clone) | proliferation (3H-thymidine incorporation, stimulation index) (Vb6+ CD8 clone)
1 | H-SVIGFIQRM-OH [SEQ ID NO: 3] | stimulated TNF-α and IFN-γ expression from nearly as many CD8 cells as did the polyclonal stimulus anti-CD3 | – | – | –
2 | H-VAHSVIGFIQRMFSE-OH [YopE peptide number 14] | – | identical response pattern | specifically produced IFN-γ | proliferated
